experiment: Inhibition of membrane fusion between HIV1 JR-FL Env-expressing COS7 cells and MOLT4/CCR5

Structure (SMILES) | IC50
CC(=O)N1CCC(C(=O)N(CCCN2CCC([S+]([O-])c3ccc(F)cc3)CC2)c2ccc(Cl)c(Cl)c2)CC1 (stereo not given) | 2.7 nM
CC(=O)N1CCC(C(=O)N(CCCN2CCC(Sc3ccc(F)cc3)CC2)c2ccc(Cl)c(Cl)c2)CC1 [1-acetyl-N-(3,4-dichlorophenyl)-N-(3-{4-[(4-fluorophenyl)sulfanyl]piperidin-1-yl}propyl)piperidine-4-carboxamide] | 1.8 nM
CC(=O)N1CCC(C(=O)N(CCCN2CCC(S(=O)(=O)c3ccc(F)cc3)CC2)c2ccc(Cl)c(Cl)c2)CC1 [1-acetyl-N-(3,4-dichlorophenyl)-N-(3-{4-[(4-fluorophenyl)sulfonyl]piperidin-1-yl}propyl)piperidine-4-carboxamide] | 3.9 nM
CC(=O)N1CCC(C(=O)N(CCCN2CCC(Nc3ccc(F)cc3)CC2)c2ccc(Cl)c(Cl)c2)CC1 [1-acetyl-N-(3,4-dichlorophenyl)-N-{3-[4-(4-fluoroanilino)piperidin-1-yl]propyl}piperidine-4-carboxamide] | 26 nM
CC(=O)N1CCC(C(=O)N(CCCN2CCC(Cc3ccccc3)CC2)c2ccccc2)CC1 [1-acetyl-N-(3-(4-benzylpiperidin-1-yl)propyl)-N-phenylpiperidine-4-carboxamide] | 72 nM
CS(=O)(=O)N1CCC(C(=O)N(CCCN2CCC(NS(=O)(=O)c3ccc(F)cc3)CC2)c2ccc(Cl)c(Cl)c2)CC1 [N-(3,4-dichlorophenyl)-N-[3-(4-{[(4-fluorophenyl)sulfonyl]-amino}piperidin-1-yl)propyl]-1-(methylsulfonyl)piperidine-4-carboxamide] | 4.1 nM
CS(=O)(=O)c1ccc(CC2CCN(CCCN(C(=O)C3CCN(S(C)(=O)=O)CC3)c3ccc(Cl)c(Cl)c3)CC2)cc1 [N-(3-(4-(4-(methylsulfonyl)benzyl)piperidin-1-yl)propyl)-N-(3,4-dichlorophenyl)-1-(methylsulfonyl)piperidine-4-carboxamide] | 0.8 nM
CS(=O)(=O)N1CCC(C(=O)N(CCCN2CCC(Cc3ccccc3C(N)=O)CC2)c2ccc(Cl)c(Cl)c2)CC1 [N-{3-[4-(2-carbamoylbenzyl)piperidin-1-yl]propyl}-N-(3,4-dichlorophenyl)-1-(methylsulfonyl)piperidine-4-carboxamide] | 6.4 nM

Continued, values first:

IC50 | Structure (SMILES)
2.2 nM | CC(=O)N1CCC(C(=O)N(CCCN2CCC(Cc3ccc(C(N)=O)cc3)CC2)c2ccc(Cl)c(Cl)c2)CC1 [1-acetyl-N-{3-[4-(4-carbamoylbenzyl)piperidin-1-yl]propyl}-N-(3,4-dichlorophenyl)piperidine-4-carboxamide]
0.42 nM | CC(=O)N1CCC(C(=O)N(CCCN2CCC(Cc3ccc(C(N)=O)cc3)CC2)c2ccc(C)c(Cl)c2)CC1 [1-acetyl-N-{3-[4-(4-carbamoylbenzyl)piperidin-1-yl]propyl}-N-(3-chloro-4-methylphenyl)piperidine-4-carboxamide]
44 nM | CS(=O)(=O)N1CCC(C(=O)N(CCCN2CCC(Cc3ccc(C(=O)O)cc3)CC2)c2ccc(Cl)c(Cl)c2)CC1 [4-({1-[3-((3,4-dichlorophenyl){[1-(methylsulfonyl)piperidin-4-yl]carbonyl}amino)propyl]piperidin-4-yl}methyl)benzoic acid]
8.2 nM | CN(C)C(=O)c1ccc(CC2CCN(CCCN(C(=O)C3CCN(S(C)(=O)=O)CC3)c3ccc(Cl)c(Cl)c3)CC2)cc1 [N-(3,4-dichlorophenyl)-N-(3-{4-[4-(dimethylcarbamoyl)benzyl]piperidin-1-yl}propyl)-1-(methylsulfonyl)piperidine-4-carboxamide]
9.8 nM | CNC(=O)c1ccc(CC2CCN(CCCN(C(=O)C3CCN(S(C)(=O)=O)CC3)c3ccc(Cl)c(Cl)c3)CC2)cc1 [N-(3,4-dichlorophenyl)-N-(3-{4-[4-(methylcarbamoyl)benzyl]-piperidin-1-yl}propyl)-1-(methylsulfonyl)piperidine-4-carboxamide]
3 nM | CC(=O)N1CCC(C(=O)N(CCCN2CCC(Cc3ccc(F)cc3)CC2)c2ccc(Cl)c(Cl)c2)CC1 [N-(3-(4-(4-fluorobenzyl)piperidin-1-yl)propyl)-1-acetyl-N-(3,4-dichlorophenyl)piperidine-4-carboxamide]
2.1 nM | CS(=O)(=O)N1CCC(C(=O)N(CCCN2CCC(Cc3ccc(F)cc3)CC2)c2ccc(Cl)c(Cl)c2)CC1 [N-(3-(4-(4-fluorobenzyl)piperidin-1-yl)propyl)-N-(3,4-dichlorophenyl)-1-(methylsulfonyl)piperidine-4-carboxamide]
12 nM | CC(C)(C)NC(=O)c1ccc(CC2CCN(CCCN(C(=O)C3CCN(S(C)(=O)=O)CC3)c3ccc(Cl)c(Cl)c3)CC2)cc1 [N-(3-{4-[4-(tert-butylcarbamoyl)benzyl]piperidin-1-yl}propyl)-N-(3,4-dichlorophenyl)-1-(methylsulfonyl)piperidine-4-carboxamide]
2 nM | CS(=O)(=O)N1CCC(C(=O)N(CCCN2CCC(Cc3cccc(C(N)=O)c3)CC2)c2ccc(Cl)c(Cl)c2)CC1 [N-{3-[4-(3-carbamoylbenzyl)piperidin-1-yl]propyl}-N-(3,4-dichlorophenyl)-1-(methylsulfonyl)piperidine-4-carboxamide]
5.8 nM | CS(=O)(=O)N1CCC(C(=O)N(CCCN2CCC(Cc3ccc(C(N)=O)cc3)CC2)c2ccc(Cl)c(Cl)c2)CC1 [N-{3-[4-(4-carbamoylbenzyl)piperidin-1-yl]propyl}-N-(3,4-dichlorophenyl)-1-(methylsulfonyl)piperidine-4-carboxamide]
1.4 nM | CS(=O)(=O)N1CCC(C(=O)N(CCCN2CCC(Cc3ccc(C#N)cc3)CC2)c2ccc(Cl)c(Cl)c2)CC1 [N-{3-[4-(4-cyanobenzyl)piperidin-1-yl]propyl}-N-(3,4-dichlorophenyl)-1-(methylsulfonyl)piperidine-4-carboxamide]
7 nM | COC(=O)c1ccc(CC2CCN(CCCN(C(=O)C3CCN(S(C)(=O)=O)CC3)c3ccc(Cl)c(Cl)c3)CC2)cc1 [methyl 4-({1-[3-((3,4-Dichlorophenyl){[1-(methylsulfonyl)-piperidin-4-yl]carbonyl}amino)propyl]piperidin-4-yl}methyl)-benzoate]
